Assays:
[1] = molecular target: T1, PNPLA1 (Homo sapiens, UniProt Q8N8W4); assay: PNPLA1-dependent ω-O-acylceramide formation in HEK293T cells; type: cell-based; conditions: NG-497 40 µM, Orlistat 40 µM
T1 construct: expressed in transfected cells; host or cells: HEK293T cells
Procedure: Fig. S3: Investigation of off-target effects of NG-497 on structurally and functionally related lipid hydrolases. (a) PNPLA1-dependent formation of acylceramides was monitored in a cell-based assay in HEK293T cells. Experiments were performed in the presence or absence of NG-497 (40 µM) and the non-selective lipase inhibitor Orlistat (40 µM). Orlistat, but not NG-497, inhibited PNPLA1/CGI-58-dependent ω-O-acylceramide formation. (b-h) Enzymes were overexpressed in Expi293 cells and cell lysates were used as source of enzymatic activity. […] Experiments were performed in the presence or absence of NG-497 (100 µM) and the formation of reaction products was monitored. […]
Data were calculated relative to the basal activity detected in LacZ-transfected controls. […]
LPL activity was inhibited using an anti-LPL antibody. All data are presented as mean ± S.D. Statistical significance was determined via ANOVA followed by Bonferroni post hoc test ( ***, p < 0.001). […]
Released free fatty acids were quantified via NEFA C kit (Fujifilm Wako Chemicals, Neuss, Germany) and release of p-nitrophenol was measured at 405 nm. […] Cellular ω-O-acylceramide formation was monitored using [1-14C]linoleic acid as tracer. […] The activity of purified human pancreatic lipase (MilliporeSigma #SRE0028) was determined as previously described7 in the presence or absence of NG-497 (100µM) or Orlistat (20 µM). […]

[2] = molecular target: T2, human ATGL (Homo sapiens, UniProt Q96AD5); assay: TAG hydrolase assay, lysates of Expi293 cells overexpressing ATGL, purified CGI-58, radiolabeled triolein; type: biochemical; conditions: inhibition of TAG hydrolase activity of human ATGL, Expi293 lysates, purified CGI-58, radiolabeled triolein
T2 construct: host or cells: Expi293 cells, crude lysate
T2 sequence (Q96AD5 1-504): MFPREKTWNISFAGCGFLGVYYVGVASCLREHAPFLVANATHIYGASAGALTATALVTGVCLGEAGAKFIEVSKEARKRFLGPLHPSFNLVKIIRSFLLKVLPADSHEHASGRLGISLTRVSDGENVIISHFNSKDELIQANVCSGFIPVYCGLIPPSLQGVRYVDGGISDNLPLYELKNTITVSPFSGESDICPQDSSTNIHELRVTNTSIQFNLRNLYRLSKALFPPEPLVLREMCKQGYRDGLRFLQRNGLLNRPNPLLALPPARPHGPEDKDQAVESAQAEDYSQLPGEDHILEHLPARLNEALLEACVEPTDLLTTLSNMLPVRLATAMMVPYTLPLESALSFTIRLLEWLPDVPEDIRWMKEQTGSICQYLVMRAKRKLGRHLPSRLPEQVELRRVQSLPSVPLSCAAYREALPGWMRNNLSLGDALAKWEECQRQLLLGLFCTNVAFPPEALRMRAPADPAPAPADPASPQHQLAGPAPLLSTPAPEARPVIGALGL
Text: We previously developed Atglistatin (Ai), a selective inhibitor of mouse ATGL,[31],[32] which is ineffective against human ATGL.[17] Ai acts as a competitive inhibitor targeting the minimal active domain of ATGL ranging from aa 1–254.[33] This domain is highly conserved in different mammalian species (∼90% identity, Table 1) and comprises the patatin-like domain, eponymous for all members of the patatin-like phospholipase domain-containing (PNPLA) protein family.[34] We first investigated the species selectivity of Ai by performing TAG hydrolase assays[35] with lysates from Expi293 cells expressing ATGL orthologues of different species. The activity of ATGL is strongly stimulated by the co-activator protein comparative gene identification-58 (CGI-58, also known as α/β hydrolase domain containing 5, ABHD5)[36] and can be suppressed by the inhibitory protein G0/G1 switch 2 (G0S2).[37] We therefore determined ATGL activity in the presence and absence of mouse CGI-58, mouse G0S2, and Ai. As shown in Figure 1a–i, all ATGL orthologues were expressed, enzymatically active, stimulated by mouse CGI-58, and inactivated by mouse G0S2. Ai inhibited mouse (Figure 1a), rat (Figure 1b), goat (Figure 1c), dog (Figure 1e), and marmoset ATGL (Figure 1f), but not pig (Figure 1d), rhesus monkey (Figure 1g), or human ATGL (Figure 1h).
To develop an inhibitor for human ATGL, we screened compounds synthesized in the course of the development of Ai.[31] Screenings were performed in the presence of purified CGI-58 using cell lysates of Expi293 cells overexpressing ATGL as a source of enzymatic activity and radiolabeled triolein as substrate as described above (Figure 1). […] In an iterative optimization process, which encompassed the synthesis and testing of >150 compounds (not shown), we varied the nature of the top aryl ring (Figure 2a). Replacement of the top phenyl group with a pyridine moiety (compound 2) led to a significant improvement in inhibitor efficacy (IC50 = 3 μM), which we interpret as a result from a smaller angle between the 1,3-arrangement of the aryl- and the ester-substituents due to the shorter C–N bond length within the pyridine group. […] The introduction of a methoxy residue at this position finally led to compound NG-497 showing an IC50 value of 1 μM.
Experimental details, materials, and methods
Expression of recombinant ATGL constructs and preparation of cell lysates. Expi293 cells were cultivated in Expi293 Expression Medium (GIBCO, Thermo Fisher Scientific, Waltham, USA) at standard conditions (37°C, 5% CO2, 95% humidified atmosphere, 125 rpm). DNA constructs containing ATGL from different species and chimeric ATGL variants in pcDNA3.1(+)myc-His C Vector were obtained from BioCat GmbH (Heidelberg, Germany). Cells were transfected with ExpiFectamine293 Transfection Kit (GIBCO) in Opti-Mem reduced serum medium (GIBCO) according to the manufacturer’s instructions. After 48 h, cells were harvested by centrifugation and washed three times with PBS. Cells were disrupted in buffer A (0.25 M sucrose, 1 mM EDTA, 1 mM dithiothreitol, 20µg/ml leupeptin, 2 µg/ml antipain, 1 µg/ml pepstatin, pH 7.0) by sonication (Virsonic 475, Virtis, Gardiner, USA). Nuclei and debris were removed by centrifugation at 1,000 g and 4°C for 10 min. Protein concentrations were determined using Bio-Rad protein assay (Bio-Rad 785, Bio-Rad Laboratories, Munich, Germany) using BSA as standard.
Expression and purification of mouse CGI-58. CGI-58 was expressed and purified as described 1. In brief, the coding sequence of mouse Cgi-58 was cloned into pHis-Sumo and co-transformed with the plasmid pTf16 expressing the chaperone Tig into E. coli BL21(DE3). Cells were cultured overnight at 37°C and 180 rpm in the presence of 40 µg/ml kanamycin and 34 µg/ml chloramphenicol. Thereafter, cells were transferred into fresh LB medium, grown until OD600 of 0.6, and expression was induced […]
by the addition of 0.5 mM IPTG. […]

T1 sequence (Q8N8W4 whole entry): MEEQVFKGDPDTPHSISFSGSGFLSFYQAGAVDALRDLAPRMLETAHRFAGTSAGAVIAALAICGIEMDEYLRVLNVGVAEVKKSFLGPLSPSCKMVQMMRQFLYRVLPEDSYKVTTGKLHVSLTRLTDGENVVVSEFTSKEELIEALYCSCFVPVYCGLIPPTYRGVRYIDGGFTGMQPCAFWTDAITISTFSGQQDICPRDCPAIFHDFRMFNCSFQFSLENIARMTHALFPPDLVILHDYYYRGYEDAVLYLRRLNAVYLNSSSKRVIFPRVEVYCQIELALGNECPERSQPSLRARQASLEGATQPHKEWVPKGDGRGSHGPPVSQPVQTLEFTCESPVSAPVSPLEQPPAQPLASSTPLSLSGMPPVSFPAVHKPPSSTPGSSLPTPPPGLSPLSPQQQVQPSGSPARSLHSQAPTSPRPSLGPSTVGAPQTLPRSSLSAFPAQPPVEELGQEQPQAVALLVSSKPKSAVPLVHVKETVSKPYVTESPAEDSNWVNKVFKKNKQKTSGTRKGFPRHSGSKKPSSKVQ

SMILES | PNPLA1/CGI-58-dependent ω-O-acylceramide formation [1] | IC50 [2] [nM]
CCCCCCCCCCC[C@@H](C[C@@H]1OC(=O)[C@H]1CCCCCC)OC(=O)[C@H](CC(C)C)NC=O [Orlistat, reference compound] | inhibited | 
CCOC(=O)c1cccc(-c2ccc(OCC)cc2)c1 [compound 1] |  | 35000
CCOC(=O)c1cccc(-c2ccc(OCC)cc2)n1 [compound 2] |  | 3000
CCOc1ccc(-c2cccc(C(=O)OC(C)C)n2)cc1 [compound 3] |  | 1800
CCOc1ccc(-c2cc(C)cc(C(=O)OC(C)C)n2)cc1 [compound 4] |  | 1600 ± 100

— publication PMC9011347, “Small-Molecule Inhibitors Targeting Lipolysis in Human Adipocytes” (Journal of the American Chemical Society, 2022)
